Laboratory results published in patent US6525054B1, “Cyanoiminoquinoxaline derivatives” (Shionogi & Co., Ltd., priority 1998, dated 2003).
Where a name gives a salt, the structure may show the parent alone.

Assays:
AMPA receptor = assay: Receptor affinity: [3H]AMPA binding to rat cerebral cortex membrane fraction; set-up: species or system Slc-Wistar rat; settings: 30 nM [3H]AMPA, 0° C. 30 min
Method: (§1) As to 2-cyanoimino-1,4-dihydro-7-(1,4-dihydro-4-oxo-1-pyridyl)-6-nitro-3-quinoxaline monosodium salt (hereinafter referred to as compound 2(2)) obtained in Example 2(2), the affinity for the AMPA receptor and glycine-binding site of the NMDA receptor was determined as follows.
Cerebral cortex of Slc-Wistar rat (body weight: 250˜300 g) was homogenized with 10 times volume of 30 mM Tris-acetate buffer (pH 7.1) containing 2.5 mM CaCl2, then the mixture was centrifugalized (30,000×g, 15 min) and re-suspended (×3 times). The resultant suspension was restored at −80° C. until use. The froze suspension was thawed at room temperature and suspended into 30 mM Tris-acetate buffer (pH 7.1) containing 2.5 mM CaCl2 and 100 mM KSCN, to give a membrane fraction. The membrane fraction was incubated with 30 nM [^3H]AMPA and a test compound of various concentrations at 0° C. for 30 min. The mixture was diluted and collected by filtration with Whatman GF/C filter to terminate the reaction, then the radioactivity of ^3H remained on the filter was determined with a liquid scintillation counter. The non-specific binding was determined using 1 mM non-radioactive glutamate to calculate the IC50 value.

kidney = assay: Nephrotoxicity; type: in vivo; settings: 100 mg/kg i.v. bolus, SD rat, 24 hr later
Method: Compound 2(2) was intravenously administered by a bolus of 100 mg/kg to SD rat (9-10 weeks), which was killed 24 hr later. The both-side kidneys were immediately extracted from the rat. After measuring the weight, one kidney was embedded in paraffin to give a tissue preparation. The other kidney was homogenized, then the extract was subjected to liquid chromatography to determine the concentration of compound 2(2).

[1] = molecular target: T1, glycine-binding site of NMDA receptor complex (Rattus norvegicus, UniProt P35439); assay: Receptor affinity: [3H]glycine binding to rat cerebral cortex membrane fraction; set-up: species or system Slc-Wistar rat; settings: 100 nM [3H]glycine, 0° C. 10 min
T1 construct: from tissue; host or cells: rat cerebral cortex membrane fraction (Triton X-100 treated)
Method: as §1
Cerebral cortex of Slc-Wistar rat (body weight: 250˜300 g) was homogenized with 20 times volume of 5 mM Tris-acetate buffer (pH 7.4) containing 1 mM EGTA, 0.1 mM PMSF and 0.01% bacitracin […] and re-suspended (×4 times). The resultant suspension was restored at −80° C. until use. The froze suspension was thawed at room temperature and incubated at 2° C. in 0.08% triton X-100 solution for 10 min, then the mixture was washed 2 times and suspended into 50 mM Tris-acetate buffer (pH 7.4), to give a membrane fraction. The membrane fraction was incubated with 100 nM [^3H]glycine and a test compound of various concentrations at 0° C. for 10 min. The mixture was diluted and collected by filtration with Whatman GF/C paper to terminate the reaction, then the radioactivity of ^3H remained on the filter was determined with a liquid scintillation counter. The non-specific binding was determined using 1 mM non-radioactive glycine to calculate the IC50 value.

AMPA-induced seizure = assay: Anticonvulsant effect on AMPA-induced seizure; type: in vivo, Slc-ddY mouse; settings: iv; mouse, i.v. 1 min before AMPA 2 nmol/5 μL i.c.v., observed 15 min, Probit method
Method: The anticonvulsant effect of compound 2(2) on AMPA-induced seizure was determined. According to the method described in J. T. Haley and W. G. McCormich, Br. J. Pharmacol. 12, 12-15(1957), AMPA 2 nmol/5 μL was intracerebroventricular administered to the cerebral ventricle of Slc-ddY mouse (4-5 weeks, male). The test compound, in a volume of 0.1 mL /10 g, was intravenously administered 1 min before the AMPA administration. The convulsion was examined by observing and checking, for 15 min from the AMPA administration, the reveal of jumping, wild-running, […] convulsion and tonic convulsion, then the ED50 value was calculated by Probit method.

cerebral infarction = assay: Inhibition effect on cerebral infarction (MCA occlusion/reperfusion); type: in vivo, Slc-Wistar rat; settings: 24 hr of reperfusion
From the text: As to compound 2(2), the inhibition effect on cerebral infarction was examined. […] Briefly the animals were anesthetized with halothane (FLUOTHANE, Takeda Chemical Industries Ltd.). After median incision of the neck skin, the right external carotid artery (ECA) was carefully dissected. A coated nylon thread (#4-0, 17.5 mm, Nitcho Kogyo Co. Ltd.) was inserted from the lumen of the ECA to the right internal carotid artery to occlude the origin of the right middle cerebral artery. After surgery, anesthesia was immediately discontinued. […] After 1 hr of MCA occlusion, the thread was removed to allow reperfusion under halothane anesthesia. Body temperature was maintained at 37° C. with a heating pad during ischemic and reperfusion surgery.
The test compound was administered from 15 min after reperfusion for 1 hr by continuous infusion via a catheter (Clay Adams; PE-20) inserted into the femoral vein in a volume of 4 ml/kg/hr.
After 24 hr of reperfusion following 1 hr of MCA occlusion, rat was perfused with physiological saline containing heparin under pentobarbital anesthesia and the brain were removed after decapitation. The brain was cut into 12 coronal sections at 1 mm intervals using tissue chopper (McLWAIN) and immersed in saline containing 2% 2,3,5-triphenyltetrazolium-Cl (Wako Pure Chemical Industries, Ltd.) for 15 min. The stained brain sections were fixed by 10% formalin neutral buffered solution and infarct areas were quantified by an image analyzer system (OPTIMAS, Ver6.0) following scanning (Scantouch210, Nikon).

IC50 (AMPA receptor): 0.034 µM | IC50 [1]: 7.5 µM
SMILES: N#CN=c1[nH]c2cc(-n3ccc(=O)cc3)c([N+](=O)[O-])cc2[nH]c1=O [compound 2(2), 2-cyanoimino-1,4-dihydro-7-(1,4-dihydro-4-oxo-1-pyridyl)-6-nitro-3-quinoxaline monosodium salt]
Kidney tissue pathology (kidney): no pathological unusual | Weight of the kidney compared to the vehicle group (kidney): has not changed | Concentration of compound in the kidney (liquid chromatography) (kidney; kidney homogenate): not detected | ED50 (AMPA-induced seizure): 6.9 mg/kg | Infarct area at cerebral cortex (% of saline, mean ± standard error) (cerebral infarction; 0.3 mg/kg/h i.v. infusion for 1 hr from 15 min after reperfusion): 79.55 ± 13.99 % of saline | Infarct area at cerebral cortex (% of saline, mean ± standard error) (cerebral infarction; 1 mg/kg/h i.v. infusion for 1 hr from 15 min after reperfusion): 55.99 ± 11.77 % of saline | Infarct area at cerebral cortex (% of saline, mean ± standard error) (cerebral infarction; 3 mg/kg/h i.v. infusion for 1 hr from 15 min after reperfusion): 50.34 ± 10.14 % of saline | Infarct area at cerebral cortex (% of saline, mean ± standard error) (cerebral infarction; 10 mg/kg/h i.v. infusion for 1 hr from 15 min after reperfusion): 46.71 ± 15.24 % of saline
